Measurements reported in the supplement of paper PMC10307832.

Experiments:
Assay in all cases: relative viability (nuclei count vs DMSO), 5 days (fraction); higher = more cells survive
[1] = test system: 201T
How it was run: (§1)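 Medians of duplicate plates are given as relative viability. That measure is the nuclei count in treated wells divided by the count in vehicle wells. Counts were taken on 4× images of lung cancer cell lines in 1536-well plates, 5 days after pin-tool dosing the day after seeding with one drug alone or a fixed anchor-drug dose plus five library-drug doses (not always all listed) in √10 steps.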

[2] = test system: COR-L23
How it was run: as §1

[3] = test system: H3255
How it was run: as §1

[4] = test system: HARA
How it was run: as §1

[5] = test system: HCC-366
How it was run: as §1

[6] = test system: HCC-78
How it was run: as §1

[7] = test system: LU99A
How it was run: as §1

[8] = test system: NCI-H1650
How it was run: as §1

[9] = test system: NCI-H1651
How it was run: as §1

[10] = test system: NCI-H1755
How it was run: as §1

[11] = test system: NCI-H1793
How it was run: as §1

[12] = test system: NCI-H2085
How it was run: as §1

[13] = test system: NCI-H2087
How it was run: as §1

[14] = test system: NCI-H23
How it was run: as §1

[15] = test system: NCI-H3122
How it was run: as §1

[16] = test system: NCI-H322M
How it was run: as §1

[17] = test system: NCI-H358
How it was run: as §1

[18] = test system: NCI-H460
How it was run: as §1

[19] = test system: NCI-H522
How it was run: as §1

[20] = test system: NCI-H596
How it was run: as §1

[21] = test system: NCI-H650
How it was run: as §1

[22] = test system: PC-3 [JPC-3]
How it was run: as §1

[23] = test system: SK-LU-1
How it was run: as §1

Compound `Cc1csc(=NC2CCCCC2)n1/N=C/c1ccc(O)c(O)c1O` [MIM1] + O=C(c1cc(Cc2n[nH]c(=O)c3ccccc23)ccc1F)N1CCN(C(=O)C2CC2)CC1 [Olaparib] (partner 8 µM) has a relative viability ([1]; first compound 0.2 µM) of 0.833, a relative viability ([1]; first compound 0.6325 µM) of 0.863 and a relative viability ([1]; first compound 2 µM) of 0.831. The relative viability ([1]; first compound 6.325 µM) was 0.415, the relative viability ([1]; first compound 20 µM) was 0.396 and the relative viability ([2]; first compound 0.2 µM) was 0.29. The relative viability ([2]; first compound 0.6325 µM) was 0.365, the relative viability ([2]; first compound 2 µM) was 0.287 and the relative viability ([2]; first compound 6.325 µM) was 0.224. The relative viability ([2]; first compound 20 µM) was 0.164, the relative viability ([3]; first compound 0.2 µM) was 0.535 and the relative viability ([3]; first compound 0.6325 µM) was 0.541. The relative viability ([3]; first compound 2 µM) was 0.518, the relative viability ([3]; first compound 6.325 µM) was 0.473 and the relative viability ([3]; first compound 20 µM) was 0.253. It also gave a relative viability ([4]; first compound 0.2 µM) of 0.792, a relative viability ([4]; first compound 0.6325 µM) of 1.06 and a relative viability ([4]; first compound 2 µM) of 0.824. It also gave a relative viability ([4]; first compound 6.325 µM) of 0.187, a relative viability ([4]; first compound 20 µM) of 0.177 and a relative viability ([5]; first compound 0.2 µM) of 0.351. It also gave a relative viability ([5]; first compound 2 µM) of 0.249, a relative viability ([5]; first compound 6.325 µM) of 0.0373 and a relative viability ([5]; first compound 20 µM) of 0.0269. It also gave a relative viability ([6]; first compound 0.2 µM) of 0.716, a relative viability ([6]; first compound 2 µM) of 0.906 and a relative viability ([6]; first compound 6.325 µM) of 0.47. For the same compound, the relative viability ([6]; first compound 20 µM) was 0.462, the relative viability ([7]; first compound 0.2 µM) was 0.298 and the relative viability ([7]; first compound 0.6325 µM) was 0.246. The relative viability ([7]; first compound 2 µM) was 0.207, the relative viability ([7]; first compound 6.325 µM) was 0.272 and the relative viability ([7]; first compound 20 µM) was 0.125. It also gave a relative viability ([8]; first compound 0.2 µM) of 0.627, a relative viability ([8]; first compound 0.6325 µM) of 0.828 and a relative viability ([8]; first compound 2 µM) of 0.499. It also gave a relative viability ([8]; first compound 6.325 µM) of 0.226, a relative viability ([8]; first compound 20 µM) of 0.233 and a relative viability ([9]; first compound 0.2 µM) of 0.184. It also gave a relative viability ([9]; first compound 0.6325 µM) of 0.174, a relative viability ([9]; first compound 2 µM) of 0.177 and a relative viability ([9]; first compound 6.325 µM) of 0.159. The relative viability ([9]; first compound 20 µM) was 0.153, the relative viability ([10]; first compound 0.2 µM) was 0.857 and the relative viability ([10]; first compound 0.6325 µM) was 0.84. It also gave a relative viability ([10]; first compound 2 µM) of 0.94, a relative viability ([10]; first compound 6.325 µM) of 0.699 and a relative viability ([10]; first compound 20 µM) of 0.262. It also gave a relative viability ([11]; first compound 0.2 µM) of 0.942, a relative viability ([11]; first compound 2 µM) of 0.899 and a relative viability ([11]; first compound 6.325 µM) of 0.686. It also gave a relative viability ([11]; first compound 20 µM) of 0.839, a relative viability ([12]; first compound 0.2 µM) of 0.768 and a relative viability ([12]; first compound 0.6325 µM) of 0.797. The relative viability ([12]; first compound 2 µM) was 0.771, the relative viability ([12]; first compound 6.325 µM) was 0.596 and the relative viability ([12]; first compound 20 µM) was 0.641. It also gave a relative viability ([13]; first compound 0.2 µM) of 0.535, a relative viability ([13]; first compound 0.6325 µM) of 0.701 and a relative viability ([13]; first compound 2 µM) of 0.702. It also gave a relative viability ([13]; first compound 6.325 µM) of 0.481, a relative viability ([13]; first compound 20 µM) of 0.241 and a relative viability ([14]; first compound 0.2 µM) of 0.302. The relative viability ([14]; first compound 0.6325 µM) was 0.266, the relative viability ([14]; first compound 2 µM) was 0.215 and the relative viability ([14]; first compound 6.325 µM) was 0.111. It also gave a relative viability ([14]; first compound 20 µM) of 0.13, a relative viability ([15]; first compound 0.2 µM) of 0.626 and a relative viability ([15]; first compound 0.6325 µM) of 0.643. The relative viability ([15]; first compound 2 µM) was 0.618, the relative viability ([15]; first compound 6.325 µM) was 0.325 and the relative viability ([15]; first compound 20 µM) was 0.113. The relative viability ([16]; first compound 0.2 µM) was 0.742, the relative viability ([16]; first compound 0.6325 µM) was 0.683 and the relative viability ([16]; first compound 2 µM) was 0.72. It also gave a relative viability ([16]; first compound 6.325 µM) of 0.746, a relative viability ([16]; first compound 20 µM) of 0.367 and a relative viability ([17]; first compound 0.2 µM) of 0.558. It also gave a relative viability ([17]; first compound 0.6325 µM) of 0.533, a relative viability ([17]; first compound 2 µM) of 0.516 and a relative viability ([17]; first compound 6.325 µM) of 0.379. For the same compound, the relative viability ([17]; first compound 20 µM) was 0.123, the relative viability ([18]; first compound 0.2 µM) was 0.403 and the relative viability ([18]; first compound 0.6325 µM) was 0.411. It also gave a relative viability ([18]; first compound 2 µM) of 0.195, a relative viability ([18]; first compound 6.325 µM) of 0.213 and a relative viability ([18]; first compound 20 µM) of 0.0637. For the same compound, the relative viability ([19]; first compound 0.2 µM) was 0.597, the relative viability ([19]; first compound 0.6325 µM) was 0.625 and the relative viability ([19]; first compound 2 µM) was 0.587. It also gave a relative viability ([19]; first compound 6.325 µM) of 0.725, a relative viability ([19]; first compound 20 µM) of 0.466 and a relative viability ([20]; first compound 0.2 µM) of 0.741. It also gave a relative viability ([20]; first compound 0.6325 µM) of 0.73, a relative viability ([20]; first compound 2 µM) of 0.694 and a relative viability ([20]; first compound 6.325 µM) of 0.626. The relative viability ([20]; first compound 20 µM) was 0.491, the relative viability ([21]; first compound 0.2 µM) was 0.421 and the relative viability ([21]; first compound 0.6325 µM) was 0.364. It also gave a relative viability ([21]; first compound 2 µM) of 0.381, a relative viability ([21]; first compound 6.325 µM) of 0.357 and a relative viability ([21]; first compound 20 µM) of 0.127. The relative viability ([22]; first compound 0.2 µM) was 1.14, the relative viability ([22]; first compound 0.6325 µM) was 1.04 and the relative viability ([22]; first compound 2 µM) was 1.07. For the same compound, the relative viability ([22]; first compound 6.325 µM) was 0.871, the relative viability ([22]; first compound 20 µM) was 0.504 and the relative viability ([23]; first compound 0.2 µM) was 0.447. It also gave a relative viability ([23]; first compound 0.6325 µM) of 0.559, a relative viability ([23]; first compound 2 µM) of 0.575 and a relative viability ([23]; first compound 6.325 µM) of 0.281. For the same compound, the relative viability ([23]; first compound 20 µM) was 0.299.
